Laboratory results taken from US7020578B2, “Method for evaluating novel, stroke treatments using a tissue risk map” (The General Hospital Corporation, priority 2000, dated 2006).

Legend:
Format in all cases: in vivo, human
[1] = phase I/II double-blind, randomized, placebo-controlled, dose-escalation trial of intravenous bFGF (FIBLAST) in stroke patients; change in NIH Stroke Scale score, admission vs discharge; settings: for number of treated patients with ΔNIH SS < 4 / number of treated patients with ΔNIH SS ≧ 4 (improved outcome): 2 × 2 contingency table
Method: Sixty-six patients were entered into a phase I/II trial of basic fibroblast growth factor (bFGF), FIBLAST. This trial was a double-blind, randomized, placebo-controlled, dose-escalation, and three month follow-up study of intravenous infusion of basic fibroblast growth factor (bFGF). Patients were randomized either to placebo or one of six different doses of bFGF ranging from […] to 150 μg/kg. Eleven patients were enrolled at Massachusetts General Hospital (MGH). Each patient underwent MRI imaging according to the standard MGH protocol within the first ten hours of symptom onset, and follow-up imaging at discharge.
The primary efficacy measure was change in NIH Stroke Scale (NIHSS) score measured at admission compared to that reported at discharge. Patients were classified as having an improved outcome if the NIH SS score decreased by more than four points. Two by two contingency tables were computed for the placebo versus the bFGF treated patients and a Fisher's Exact test performed.
Patients with greater than a four point change on the NIH SS score were classified as having a favorable outcome. A 2×2 contingency table, shown in Table 4, was evaluated for statistical independence between treated and placebo groups using Fisher's exact test.

[2] = GLM risk map of infarction from initial DWI/PWI compared with final infarct on follow-up imaging in bFGF trial patients; settings: Patient 7; full dose (150 ug/kg); 19 day follow-up FLAIR
Text: A generalized linear model (GLM) of risk of tissue infarction was generated from retrospective studies of hyperacute cerebral ischemia patients who received diffusion and perfusion weighted imaging within twelve hours of presenting with symptoms. Only patients with cortical infarcts caused by occlusion of major cerebral arteries were included in the training data. […] The volumetric diffusion and perfusion data were coregistered utilizing an automated image registration software package (AIR 3.08). Utilizing a supervised learning algorithm and logistic regression, the parameters for the GLM were computed using coregistered data sets, as described in the previous section.
In one embodiment, a GLM algorithm is used to model tissue outcome. Tissue outcome y can be modeled as a binary variable (normal/abnormal) and therefore a Bernoulli probability density function assumed for its distribution. The logistic function can then be used to compute y as set forth below in Equation 1: [formula] where y is an estimate of the risk of infarction, x represents an input vector that can include an initial T2, ADC, rCBF (relative cerebral blood flow), rCBV (relative cerebral blood volume) and MTT (mean transmit time) data and B the calculated coefficients.
The dose of bFGF was correlated with the positive predictive value (PPV) of the GLM model described in the previous section. […]

[3] = phase I/II double-blind, randomized, placebo-controlled, dose-escalation trial of intravenous bFGF (FIBLAST) in stroke patients; change in NIH Stroke Scale score, admission vs discharge; settings: Patient 9*; 3 μg/kg; NIH SS (Initial) 2; follow-up 3 days
[4] = patients enrolled at MGH, all doses pooled
[5] = subset of 7 patients evaluated with GLM models

Substance: basic fibroblast growth factor [bFGF]
- number of treated patients with ΔNIH SS < 4 [1, 4]: 4
- number of treated patients with ΔNIH SS ≧ 4 (improved outcome) [1, 4]: 4
- number of treated patients with ΔNIH SS < 4 [1, 5]: 1
- number of treated patients with ΔNIH SS ≧ 4 (improved outcome) [1, 5]: 4
- NIH SS (Discharge) ([1]; Patient 3, 9 μg/kg, NIH SS (Initial) 15, follow-up 7 days): 5
- NIH SS (Discharge) ([1]; Patient 4, 27 μg/kg, NIH SS (Initial) 15, follow-up 7 days): 11
- NIH SS (Discharge) ([1]; Patient 5, 75 μg/kg, NIH SS (Initial) 6, follow-up 4 days): 1
- NIH SS (Discharge) ([1]; Patient 6, 150 μg/kg, NIH SS (Initial) 16, follow-up 13 days): 14
- NIH SS (Discharge) ([1]; Patient 7, 150 μg/kg, NIH SS (Initial) 17, follow-up 19 days): 12
- NIH SS (Discharge) ([1]; Patient 8*, 75 μg/kg, NIH SS (Initial) 4, follow-up 8 days): 2
- NIH SS (Discharge) ([1]; Patient 10*, 75 μg/kg, NIH SS (Initial) 4, follow-up 5 days): 3
- NIH SS (Discharge) ([1]; Patient 11*, 3 μg/kg, NIH SS (Initial) 18, follow-up 7 days): 20
- statistical independence between treated and placebo groups, improved outcome (Fisher's exact test) ([1]; Table 4, patients enrolled at MGH): No statistical significance
- statistical independence between treated and placebo groups, improved outcome (Fisher's exact test) ([1]; Table 5, subset of 7 patients): No statistical significance
- outcome of penumbra predicted at risk of infarction by the risk map, on follow-up FLAIR [2]: does not go on to infarction
- NIH SS (Discharge) [3]: 2
